Experimental data: ChEMBL document CHEMBL3817816, “Improvement of the pharmacological properties of amidated kyotorphin by means of iodination” (Medchemcomm, 2016)
One block for each compound: values may come before it.

Legend:
[1] = tested on: Intestine; assay: Drug uptake in Sprague-Dawley rat intestine at 11 MBq, ip after 5 mins by gamma counting assay; assay type: ADME, organism-based; settings: in vivo
[2] = tested on: Lung; assay: Drug uptake in Sprague-Dawley rat lung at 11 MBq, ip after 10mins by gamma counting assay; assay type: ADME, organism-based; settings: in vivo
[3] = Stability of compound in saline at 11 kBq/uL up to 1 week at 4 degC by HPLC analysis; assay type: physicochemical; settings: buffer, 168 h
[4] = tested on: Heart; assay: Drug uptake in Sprague-Dawley rat heart at 11 MBq, ip after 5 mins by gamma counting assay; assay type: ADME, organism-based; settings: in vivo
[5] = tested on: Muscle tissue; assay: Drug uptake in Sprague-Dawley rat muscle at 11 MBq, ip after 10mins by gamma counting assay; assay type: ADME, organism-based; settings: in vivo
[6] = tested on: Lung; assay: Drug uptake in Sprague-Dawley rat lung at 11 MBq, ip after 5 mins by gamma counting assay; assay type: ADME, organism-based; settings: in vivo
[7] = tested on: Brain; assay: Drug uptake in Sprague-Dawley rat brain at 11 MBq, ip after 5 mins by gamma counting assay; assay type: ADME, organism-based; settings: in vivo
[8] = tested on: Stomach; assay: Drug uptake in Sprague-Dawley rat stomach at 11 MBq, ip after 5 mins by gamma counting assay; assay type: ADME, organism-based; settings: in vivo
[9] = tested on: Liver; assay: Drug uptake in Sprague-Dawley rat liver at 11 MBq, ip after 5 mins by gamma counting assay; assay type: ADME, organism-based; settings: in vivo
[10] = Octanol-PBS partition coefficient, log P of the compound at pH 7.4 by shake flask method; assay type: physicochemical
[11] = tested on: Liver; assay: Stability of compound in Sprague-Dawley rat liver homogenate assessed as remaining parent compound […] at 10 mins by RP-HPLC analysis; assay type: ADME; settings: iv
[12] = tested on: Thyroid gland; assay: Drug uptake in Sprague-Dawley rat thyroid at 11 MBq, ip after 5 mins by gamma counting assay; assay type: ADME, organism-based; settings: in vivo
[13] = tested on: Blood; assay: Drug uptake in Sprague-Dawley rat blood at 11 MBq, ip after 5 mins by gamma counting assay; assay type: ADME, organism-based; settings: in vivo
[14] = tested on: Spleen; assay: Drug uptake in Sprague-Dawley rat spleen at 11 MBq, ip after 5 mins by gamma counting assay; assay type: ADME, organism-based; settings: in vivo
[15] = tested on: Kidney; assay: Drug uptake in Sprague-Dawley rat kidney at 11 MBq, ip after 10mins by gamma counting assay; assay type: ADME, organism-based; settings: in vivo
[16] = tested on: Intestine; assay: Drug uptake in Sprague-Dawley rat intestine at 11 MBq, ip after 10mins by gamma counting assay; assay type: ADME, organism-based; settings: in vivo
[17] = tested on: Rattus norvegicus; assay: Analgesic activity in Wistar Han rat assessed as time required to show maximal effect at 44.42 mg/kg, ip administered as single dose by hot plate test; assay type: functional
[18] = tested on: Spleen; assay: Drug uptake in Sprague-Dawley rat spleen at 11 MBq, ip after 10mins by gamma counting assay; assay type: ADME, organism-based; settings: in vivo
[19] = tested on: Femur; assay: Drug uptake in Sprague-Dawley rat femur at 11 MBq, ip after 10mins by gamma counting assay; assay type: ADME, organism-based; settings: in vivo
[20] = tested on: Muscle tissue; assay: Drug uptake in Sprague-Dawley rat muscle at 11 MBq, ip after 5 mins by gamma counting assay; assay type: ADME, organism-based; settings: in vivo
[21] = tested on: Femur; assay: Drug uptake in Sprague-Dawley rat femur at 11 MBq, ip after 5 mins by gamma counting assay; assay type: ADME, organism-based; settings: in vivo
[22] = tested on: Kidney; assay: Stability of compound in Sprague-Dawley rat kidney homogenate assessed as remaining parent compound at 10 mins by RP-HPLC analysis; assay type: ADME, tissue-based; settings: tissue homogenate
[23] = tested on: Heart; assay: Drug uptake in Sprague-Dawley rat heart at 11 MBq, ip after 10mins by gamma counting assay; assay type: ADME, organism-based; settings: in vivo
[24] = tested on: Brain; assay: Drug uptake in Sprague-Dawley rat brain at 11 MBq, ip after 10mins by gamma counting assay; assay type: ADME, organism-based; settings: in vivo
[25] = tested on: Stomach; assay: Drug uptake in Sprague-Dawley rat stomach at 11 MBq, ip after 10mins by gamma counting assay; assay type: ADME, organism-based; settings: in vivo
[26] = tested on: Thyroid gland; assay: Drug uptake in Sprague-Dawley rat thyroid at 11 MBq, ip after 10mins by gamma counting assay; assay type: ADME, organism-based; settings: in vivo
[27] = tested on: Kidney; assay: Drug uptake in Sprague-Dawley rat kidney at 11 MBq, ip after 5 mins by gamma counting assay; assay type: ADME, organism-based; settings: in vivo
[28] = Stability of compound in Sprague-Dawley rat serum assessed as remaining parent compound at 5 mins by RP-HPLC analysis; assay type: ADME; settings: read-out: Stability
[29] = tested on: Blood; assay: Drug uptake in Sprague-Dawley rat blood at 11 MBq, ip after 10mins by gamma counting assay; assay type: ADME, organism-based; settings: in vivo
[30] = Permeability across apical to basolateral side of mouse bEND.3 cells at 37 kBq/200 uL after 10 hrs by transwell assay relative to control; assay type: ADME
[31] = tested on: Liver; assay: Drug uptake in Sprague-Dawley rat liver at 11 MBq, ip after 10mins by gamma counting assay; assay type: ADME, organism-based; settings: in vivo
[32] = tested on: Rattus norvegicus; assay: Analgesic activity in Wistar Han rat assessed as time required to show maximal effect at 56.47 mg/kg, ip administered as single dose by hot plate test; assay type: functional
[33] = tested on: Rattus norvegicus; assay: Analgesic activity in Wistar Han rat assessed as time required to show maximal effect at 5 mg/kg, ip by hot plate test; assay type: functional

- Drug uptake [1]: 1.6 % ID/g
- Drug uptake [2]: 0.35 % ID/g
- Stability [3]: Stable
- Drug uptake [4]: 0.26 % ID/g
- Drug uptake [5]: 0.26 % ID/g
- Drug uptake [6]: 0.5 % ID/g
- Drug uptake [7]: 0.03 % ID/g
- Drug uptake [8]: 0.48 % ID/g
- Drug uptake [9]: 0.9 % ID/g
- logD [10]: -1.8
- Stability [11]: Unstable
- Drug uptake [12]: 2.7 % ID/g
- Drug uptake [13]: 0.5 % ID/g
- Drug uptake [14]: 1.1 % ID/g
- Drug uptake [15]: 0.57 % ID/g
- Drug uptake [16]: 1.06 % ID/g
- Drug uptake [18]: 0.33 % ID/g
- Drug uptake [19]: 0.27 % ID/g
- Drug uptake [20]: 0.28 % ID/g
- Drug uptake [21]: 0.22 % ID/g
- Stability [22]: Unstable
- Drug uptake [23]: 0.32 % ID/g
- Drug uptake [24]: 0.07 % ID/g
- Drug uptake [25]: 0.98 % ID/g
- Drug uptake [26]: 0.7 % ID/g
- Drug uptake [27]: 0.5 % ID/g
- remaining at 5 min [28]: 72.5%
- Drug uptake [29]: 0.68 % ID/g
- fold change (FC) [30]: 0.49
- Drug uptake [31]: 0.88 % ID/g
Compound: N=C(N)NCCC[C@H](NC(=O)[C@@H](N)Cc1ccc(O)c([125I])c1)C(N)=O
- Time [17]: 30 min

Compound: N=C(N)NCCC[C@H](NC(=O)[C@@H](N)Cc1cc([125I])c(O)c([125I])c1)C(N)=O
- Time [32]: 30 min

Compound: N=C(N)NCCC[C@H](NC(=O)[C@@H](N)Cc1ccc(O)cc1)C(N)=O
- Time [33]: 15 min
